Square brackets hold non-standard residues; d marks the D form. Ends that are not written are not given here.

These results are taken from patent publication US20240368668A1, “SUBSTRATES AND BIOMARKERS OF ADAMTS7” (The Broad Institute, Inc., priority 2021, published 2024).

The first test deals with mouse ADAMTS7. The test can be described thus: TMT10 TAILS N-terminomics, HUVEC experiment (process replicates, trypsin/AspN digest). Format: cell-based, human. To be noted: HUVEC TAILS HC; log fold change of N-terminal peptide, Ad-mADAMTS7 WT over EQ. A digest of the protocol: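 Full-length mouse ADAMTS7 (WT or E373Q mutant, C-terminal 3xFLAG) or luciferase was transduced via adenovirus, 50 MOI, into HCA-SMC (SMC1, SMC2) or HUVEC. SMC1: pooled media, technical triplicates 400 ug; SMC2: process triplicates 300 ug; HUVEC: process triplicates 200 ug, bFGF2 10 ng/ml.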
With “ECM1_108 (QEAVPLQK; listed as Homo sapiens)”, the logFC.mWT.over.mEQ amounted to 2.12. Regarding “EFEMP1_125_ (VAGPEMQTGR; listed as Homo sapiens)”, the logFC.mWT.over.mEQ turned out to be 2.45. “ERAP2_718 (ISENLKR; listed as Homo sapiens)” registered a logFC.mWT.over.mEQ of 4.41. On the same count and under the same terms, to “EWSR1_87 (YSQPVQGYGTGAY; listed as Homo sapiens)” belongs 1.15; to “FN1_34 ([code q]QMVQPQSPVAVSQSKPGCY; not fully specified (residue 3); listed as Homo sapiens)”, 1.43; to “FN1_35 ([code q]MVQPQSPVAVSQSKPGCY; not fully specified (residue 2); listed as Homo sapiens)”, 2.58. “FN1_293 (VYQPQPHPQPPPYGHCVT; listed as Homo sapiens)” showed a logFC.mWT.over.mEQ of 1.24. On to “FN1_607 (SSSGPVEVFIT; listed as Homo sapiens)”, for which the logFC.mWT.over.mEQ amounted to 2.71. As to “FN1_1144 (TPGVEYVYTIQVLR; listed as Homo sapiens)”, the logFC.mWT.over.mEQ amounted to 1.62.

On to “FN1_1780 (LQGLRPGSEYTVSVVALH; listed as Homo sapiens)”, for which the logFC.mWT.over.mEQ came out at 2.27. The substance “FN1_1805 (LIGTQSTAIPAPT; listed as Homo sapiens)” came in with a logFC.mWT.over.mEQ of 1.42.

The substance “FN1_2113 (FVTHPGY; listed as Homo sapiens)” showed a logFC.mWT.over.mEQ of 1.67. Turning to “FSTL1_290 (LQKHQETA; listed as Homo sapiens)”, the logFC.mWT.over.mEQ turned out to be 2.57. Take “LOX_125 (FQAGYSTSR; listed as Homo sapiens)”: the logFC.mWT.over.mEQ worked out at 3.58.

Still in this test, the particulars now being: HUVEC experiment; log fold change, mouse ADAMTS7 WT over EQ.
As for “FN1_607 (SSSGPVEVFIT; listed as Homo sapiens)”, the “HUVEC logFC.mWT.over.mEQ” value is 2.04.
